Test results as given in paper PMC11594329, “Development of LAT1-Selective Nuclear Medicine Therapeutics Using Astatine-211” (International Journal of Molecular Sciences, 2024).

How the values were obtained:
[1] = Single dose intravenous toxicity study (hematology, pathology) in ICR mice; type: in vivo; conditions: ICR mice male and female, 1 MBq/mouse
Protocol: Toxicity studies were performed using ^211At-AAMT-O-Me-L, which appeared to have the highest safety profile based on pharmacokinetic results. Labeled material was administered to ICR mice (male and female) at a dose of 1 MBq/mouse with a clear therapeutic effect, and samples were collected the day after administration and 5, 14, and 28 days later for blood and pathological examination.
Development of LAT1-selective nuclear medicine therapeutics
Kazuko Kaneda-Nakashima 1, 2*, Yoshifumi Shirakami 2, Kentaro Hisada 1, Sifan Feng 1, Yuichiro Kadonaga 2, Kazuhiro Ooe 2, Tadashi Watabe 3, Yoshiyuki Manabe 2, 4, Atsushi Shimoyama 2, 4, Masashi Murakami 2, Atsushi Toyoshima 2, Hiromitsu Haba 5, Yoshikatsu Kanai 6, Koichi Fukase 2, 4 […]
S1. Hematological analysis
S1.1. Animal preparation and administration of 211At-AAMT-O-Me-L
This study was conducted in compliance with the Animal Experiment […]
(Hamamatsu, Japan), respectively. […] General condition and body weight were monitored. […]
After the prescribed observation time, blood was collected under anesthesia and the animals were euthanized. […] Red blood cell count (RBC), hemoglobin concentration (Hb), hematocrit (Ht), white blood cell count (WBC), platelet count (platelet), lymphocytes (%Lymph), monocytes (%Mon), and granulocytes (%Gra) were calculated (Supplementary Table S2). […]

[2] = Stability of labeled compound by TLC after labeling; type: physicochemical; conditions: after 24 h and 48 h
Protocol: All precursors were labeled by “Shirakami Reaction” and purified using an HLB column (Waters Corp, Waltham, MA, USA). All structures are shown in Supplementary Figure S1. After purification, the solution was supplemented with 1% (v/w) of ascorbic acid. The retention time of (S)-2-amino-3-(3-(astato-^211At)-4-methoxyphenyl)-2-methylpropanic acid (^211At-AAMT-OMe-L) determined using High Performance Liquid Chromatography (HPLC) (concentration: 1 MBq/mL, Flow: 1 mL/min; absorbance = 226 nm) was 12.91 min. A COSMOSIL Packed 5C18-MS-II (4.6 mm × 150 mm) Column was used at 40 °C. Mobile phase A was 0.1% formic acid and B was acetonitrile (10–60%, 20 min). […] The stability of ^211At-AAMT-OMe-L in its unpurified state was analyzed by thin layer chromatography (TLC). BAS IP MS 2025E (GE Healthcare Technologies Inc., Chicago, IL, USA) was used for imaging. […] Because optical isomers were only examined for ^211At-AAMT-OMe-L and the remaining labeled products were all L-isomers, the DL notation was omitted when optical isomers were not compared. ^211At-AAMT-O-Me-L in the crude product solution was detected at Rf = 0.80, yielding a radiochemical yield (RCY) of 81.3%. The radiochemical yield and purity of the purified product were 81% and 98%, respectively. ^211At-AAMT-O-Me-D in the crude product solution was detected at Rf = 0.80, yielding a radiochemical yield (RCY) of 79.6%. […]

## COc1ccc(C[C@](C)(N)C(=O)O)cc1[211At] [^211At-AAMT-O-Me-L, (S)-2-amino-3-(3-(astato-^211At)-4-methoxyphenyl)-2-methylpropanic acid]
[1]; day after administration
  Toxicity findings (blood and pathological examination): no effects were observed
[1]; five days after administration, subsequently cured
  Toxicity findings (blood and pathological examination): hematopoietic disorders originating from radiation exposure were observed
[2]
  Stability in unpurified state by TLC: almost no degradation
